The values below come from paper PMC9963587 (Molecules, 2023).

“Also recorded” adds a separate entry of the source. Read-outs that look alike come from different tables or passages of the source.

Data set [1] deals with LASV GP2 (Lassa virus, UniProt P08669). The data set can be described thus: biochemical. The data set is classed as binding. The conditions noted are these: for kon: read-out: ka.
A short description of data set [2]: in vitro. The conditions noted are these: human.
Data set [3] has as its system LASVpv (LASV pseudotyped virus bearing LASV GPC, Josiah strain). The data set can be described thus: microbe, parasite or virus in culture. The data set is classed as cell-based, Lassa virus.
For data set [4], the system named is VSV pseudotyped lentivirus (VSVpv). The data set is classed as cell-based, vesicular stomatitis virus.
Data set [5] has as its system HEK-293 cells.
The mark [6] stands for this setting: Mammarenavirus lassaense, HEK293, 48 h.

LASV GP2, sequence (P08669 260-491 limits assumed): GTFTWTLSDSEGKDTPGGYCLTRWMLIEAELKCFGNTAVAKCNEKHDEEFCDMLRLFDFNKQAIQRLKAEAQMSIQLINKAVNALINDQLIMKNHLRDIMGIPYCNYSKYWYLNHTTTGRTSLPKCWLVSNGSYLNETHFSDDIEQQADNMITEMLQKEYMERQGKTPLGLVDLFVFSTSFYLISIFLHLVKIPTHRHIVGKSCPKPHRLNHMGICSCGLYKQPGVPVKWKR

One may read the Kd as the constant that tells how readily two partners part at equilibrium. In general, IC50 refers to the concentration at which inhibition is half-maximal. As a reminder, the melting point is the temperature, or range, at which the solid turns liquid. In turn, `COc1ccc(-n2cnc3cc(NCc4ccc(Cl)c(Cl)c4)ccc32)cc1` [Compound 13i, N-(3,4-dichlorobenzyl)-1-(4-methoxyphenyl)-1H-benzo[d]imidazol-5-amine] registered a melting point of 134.1 to 135.8 °C. Further, in data set [1], binding was characterised by a dissociation constant (Kd) of 25400 nM, the kd amounted to 0.49 s⁻¹ and the kon came to 19400 M⁻¹ s⁻¹. Further, in data set [2], the CC50 came to 81700 nM. In addition, the IC50 in data set [3] (setting [6]) worked out at 53.1 nM.
On to `COc1ccc(-n2cnc3cc(NCc4ccc(C(F)(F)F)cc4)ccc32)cc1` [Compound 13j, 1-(4-methoxyphenyl)-N-(4-(trifluoromethyl)benzyl)-1H-benzo[d]imidazol-5-amine], for which the melting point was in the range of 198.3 to 200.5 °C. Besides, in data set [1], the Kd was determined as 5490 nM, the kd is 0.04 s⁻¹ and the kon worked out at 8530 M⁻¹ s⁻¹. Further, the CC50 in data set [2] turned out to be 109000 nM. Further, in data set [3] (setting [6]), the midpoint of inhibition, the IC50, lay at 63.8 nM.
Take `CC(C)Oc1ccc(-n2cnc3cc(/C=C\c4ccc(C(C)(C)O)cc4)ccc32)cc1` [LHF−535, reference compound]: in data set [1], the Kd is 114 nM, the kd was 0.03 s⁻¹ and the kon was 304000 M⁻¹ s⁻¹. Further, the “antiviral effect against VSVpv infection” value in data set [4] was “little or no effect; also recorded: did not exhibit an antiviral effect”. Moreover, in data set [2], the CC50 was 3680 nM. Besides, the “inhibition of LASVpv infection (EGFP expression)” value in data set [3] is on record as “concentration-dependent”. Besides, it took 3.04 nM to reach half-maximal inhibition in data set [3] (setting [6]) (IC50).
The compound “N-(2, 4-dimethoxybenzyl)-1-(4-methoxyphenyl)-1H-benzo[d]imidazol-5-amine [Compound 13c]” displayed a CC50 in data set [5] of 74200 nM. In data set [1], this compound came in with a ka of 39500 M⁻¹ s⁻¹ and a kd of 0.03 s⁻¹. In addition, the Kd in data set [1] (read-out: KD) worked out at 825 nM. For the same compound, the IC50 in data set [3] (read-out: IC50) is 15.5 nM.
